Reference: patent US20060128716A1, “Use of 4-pyridylmethyl-phthalazine derivatives for the manufacture of a medicament for the treatment of myelodysplastic syndromes” (priority 2002, published 2006)

Experiments:
advanced MDS = experiment: Clinical example: oral PTK787 in patients with untreated advanced MDS; format: in vivo, human
Flt-1 = Flt-1 (Homo sapiens, UniProt P17948); conditions: statement in words, no test described; cited from earlier work
Flt-4 = Flt-4 (Homo sapiens, UniProt P35916); conditions: statement in words, no test described; cited from earlier work
Sequence of Flt-4 (P35916 25-1363, species assumed): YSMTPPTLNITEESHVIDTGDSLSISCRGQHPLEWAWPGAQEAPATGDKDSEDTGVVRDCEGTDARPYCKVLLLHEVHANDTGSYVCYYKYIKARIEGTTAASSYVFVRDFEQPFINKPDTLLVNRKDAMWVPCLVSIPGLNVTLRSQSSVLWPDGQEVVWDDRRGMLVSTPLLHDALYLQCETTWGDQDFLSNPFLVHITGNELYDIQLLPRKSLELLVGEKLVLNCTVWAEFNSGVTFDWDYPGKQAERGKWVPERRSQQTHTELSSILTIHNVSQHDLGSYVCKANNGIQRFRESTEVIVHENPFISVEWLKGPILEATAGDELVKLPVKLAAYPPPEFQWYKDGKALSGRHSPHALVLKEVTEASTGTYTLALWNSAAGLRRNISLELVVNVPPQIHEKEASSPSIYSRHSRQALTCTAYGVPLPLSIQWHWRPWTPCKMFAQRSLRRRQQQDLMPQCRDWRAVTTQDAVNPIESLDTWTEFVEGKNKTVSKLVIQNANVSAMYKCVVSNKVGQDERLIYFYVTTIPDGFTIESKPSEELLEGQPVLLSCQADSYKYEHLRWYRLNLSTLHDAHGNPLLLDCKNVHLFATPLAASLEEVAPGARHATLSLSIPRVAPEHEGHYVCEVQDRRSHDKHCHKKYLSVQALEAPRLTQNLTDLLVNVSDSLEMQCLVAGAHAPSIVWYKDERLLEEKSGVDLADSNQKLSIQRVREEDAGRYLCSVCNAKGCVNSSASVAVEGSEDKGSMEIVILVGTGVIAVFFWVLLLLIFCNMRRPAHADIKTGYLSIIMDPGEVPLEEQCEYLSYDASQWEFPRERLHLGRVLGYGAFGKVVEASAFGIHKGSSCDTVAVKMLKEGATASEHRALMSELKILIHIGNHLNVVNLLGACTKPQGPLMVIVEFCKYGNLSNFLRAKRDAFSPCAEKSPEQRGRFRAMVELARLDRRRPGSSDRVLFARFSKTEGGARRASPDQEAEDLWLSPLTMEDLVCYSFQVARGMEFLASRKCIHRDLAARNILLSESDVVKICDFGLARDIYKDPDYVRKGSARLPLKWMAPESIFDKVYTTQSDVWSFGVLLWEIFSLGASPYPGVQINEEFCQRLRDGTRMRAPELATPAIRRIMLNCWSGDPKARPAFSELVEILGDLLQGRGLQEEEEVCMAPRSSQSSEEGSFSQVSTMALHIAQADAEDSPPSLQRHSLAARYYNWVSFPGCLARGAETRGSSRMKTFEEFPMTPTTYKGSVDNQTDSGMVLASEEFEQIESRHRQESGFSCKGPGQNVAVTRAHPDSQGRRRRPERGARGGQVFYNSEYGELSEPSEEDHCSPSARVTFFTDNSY

c-Kit = c-Kit (Homo sapiens, UniProt P10721); conditions: statement in words, no test described; cited from earlier work
Sequence of c-Kit (P10721 26-976): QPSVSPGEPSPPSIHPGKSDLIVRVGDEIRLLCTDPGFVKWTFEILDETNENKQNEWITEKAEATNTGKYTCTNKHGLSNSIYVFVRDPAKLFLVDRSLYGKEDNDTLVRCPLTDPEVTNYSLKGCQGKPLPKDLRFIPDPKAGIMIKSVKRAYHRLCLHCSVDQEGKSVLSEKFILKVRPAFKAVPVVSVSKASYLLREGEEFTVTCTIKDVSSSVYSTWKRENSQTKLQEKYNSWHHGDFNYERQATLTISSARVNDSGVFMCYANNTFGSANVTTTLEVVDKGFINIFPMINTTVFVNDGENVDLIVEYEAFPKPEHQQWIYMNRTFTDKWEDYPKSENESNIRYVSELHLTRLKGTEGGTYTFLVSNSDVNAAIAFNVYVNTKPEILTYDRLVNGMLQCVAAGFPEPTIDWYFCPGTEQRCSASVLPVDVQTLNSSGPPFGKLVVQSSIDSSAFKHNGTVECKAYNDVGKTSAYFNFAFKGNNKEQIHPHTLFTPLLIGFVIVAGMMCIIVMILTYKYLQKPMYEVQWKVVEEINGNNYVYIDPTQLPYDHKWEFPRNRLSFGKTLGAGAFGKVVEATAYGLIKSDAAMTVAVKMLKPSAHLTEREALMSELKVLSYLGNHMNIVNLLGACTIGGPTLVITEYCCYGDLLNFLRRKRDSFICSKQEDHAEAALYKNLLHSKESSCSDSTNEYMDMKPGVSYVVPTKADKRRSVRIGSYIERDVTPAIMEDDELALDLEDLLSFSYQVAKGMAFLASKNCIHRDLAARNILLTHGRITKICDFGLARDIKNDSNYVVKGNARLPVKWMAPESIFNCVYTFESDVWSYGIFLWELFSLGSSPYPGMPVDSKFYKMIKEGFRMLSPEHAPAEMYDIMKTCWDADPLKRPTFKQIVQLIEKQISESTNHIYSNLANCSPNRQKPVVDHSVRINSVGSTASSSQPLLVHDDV

Sequence of Flt-1 (P17948 27-1338, species assumed): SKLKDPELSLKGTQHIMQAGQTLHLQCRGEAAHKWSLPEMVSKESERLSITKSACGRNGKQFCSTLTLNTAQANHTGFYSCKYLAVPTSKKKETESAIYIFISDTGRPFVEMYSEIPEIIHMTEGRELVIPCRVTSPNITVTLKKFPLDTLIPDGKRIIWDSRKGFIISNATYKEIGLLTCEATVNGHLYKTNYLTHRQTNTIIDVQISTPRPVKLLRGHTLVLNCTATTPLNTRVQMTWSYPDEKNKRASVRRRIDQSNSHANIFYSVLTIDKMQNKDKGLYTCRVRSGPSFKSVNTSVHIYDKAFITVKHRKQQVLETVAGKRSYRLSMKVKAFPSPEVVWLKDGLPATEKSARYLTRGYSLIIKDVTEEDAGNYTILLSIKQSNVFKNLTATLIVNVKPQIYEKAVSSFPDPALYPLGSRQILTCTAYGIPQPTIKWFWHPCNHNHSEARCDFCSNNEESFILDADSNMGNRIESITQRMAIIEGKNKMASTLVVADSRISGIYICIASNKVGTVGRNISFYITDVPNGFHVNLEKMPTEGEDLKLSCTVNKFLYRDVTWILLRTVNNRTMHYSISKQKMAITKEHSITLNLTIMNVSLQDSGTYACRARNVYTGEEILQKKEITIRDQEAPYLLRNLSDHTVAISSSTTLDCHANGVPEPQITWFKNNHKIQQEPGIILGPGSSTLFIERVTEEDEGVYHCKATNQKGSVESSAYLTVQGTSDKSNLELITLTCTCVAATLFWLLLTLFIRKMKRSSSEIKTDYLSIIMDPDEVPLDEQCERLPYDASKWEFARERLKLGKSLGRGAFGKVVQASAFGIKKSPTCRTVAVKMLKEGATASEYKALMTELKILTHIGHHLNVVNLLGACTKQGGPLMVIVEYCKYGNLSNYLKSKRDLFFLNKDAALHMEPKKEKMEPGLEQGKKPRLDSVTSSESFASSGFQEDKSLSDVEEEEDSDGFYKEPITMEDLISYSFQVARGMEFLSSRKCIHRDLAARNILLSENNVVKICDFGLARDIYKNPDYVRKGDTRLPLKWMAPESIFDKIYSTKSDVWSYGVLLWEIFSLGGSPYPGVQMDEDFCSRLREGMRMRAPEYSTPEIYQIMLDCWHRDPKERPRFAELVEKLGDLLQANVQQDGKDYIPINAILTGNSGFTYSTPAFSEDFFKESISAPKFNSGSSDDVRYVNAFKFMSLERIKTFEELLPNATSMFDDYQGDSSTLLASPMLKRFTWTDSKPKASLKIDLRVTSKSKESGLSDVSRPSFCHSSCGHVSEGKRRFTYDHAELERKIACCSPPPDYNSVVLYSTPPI

Clc1ccc(Nc2nnc(Cc3ccncc3)c3ccccc23)cc1 [PTK787]
disease progression in patients with MDS (advanced MDS; in at least some patients with MDS): slows disease progression
patients with MDS showing stable disease with excellent performance status (advanced MDS; of twelve patients, 500 or 750 mg orally twice daily): Two
bone marrow blasts (advanced MDS; one patient with baseline 18% bone marrow blasts, remained for 8 months, 500 or 750 mg orally twice daily): under 30%
bone marrow blasts (advanced MDS; second patient with baseline 11.5% blasts, remained for 4 months, 500 or 750 mg orally twice daily): ≤ 16%
inhibition of Flt-1 (Flt-1): can also inhibit
inhibition of Flt-4 (Flt-4): can also inhibit
activity against c-Kit (c-Kit): has activity against other tyrosine kinase receptors
